# Assay results as given in the supplement of paper PMC10307832.
# Compound: CC(C)C[C@@H](C(=O)N[C@H](C(=O)OC1CCCC1)c1ccccc1)[C@H](O)C(=O)NO [Tosedostat] + Cc1cc(Nc2cc(N3CCN(C)CC3)nc(Sc3ccc(NC(=O)C4CC4)cc3)n2)n[nH]1 [Tozasertib] (partner 0.1 µM)
# Assay: relative viability (nuclei count vs DMSO), 5 days (fraction); higher = more cells survive
# Settings: first compound 0.06325 µM
# How it was run: (§1)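 Relative viability was taken as the ratio of nuclei in treated wells to nuclei in vehicle wells. Lung cancer cell lines in 1536-well plates received compounds by pin tool one day after seeding, either one drug alone or a fixed anchor-drug dose plus five library-drug doses (not always all listed) in √10 steps. Nuclei were counted on 4× images after 5 days of treatment, and values are medians of duplicate plates.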
row,Cell Line,relative viability
1,LK-2,0.208
2,NCI-H2347,0.509
3,NCI-H2342,0.537
4,SK-MES-1,0.822
5,H3255,0.717
6,COR-L23,0.165
7,COR-L 105,0.291
8,LU99A,0.284
9,ChaGo-K-1,0.227
10,NCI-H2170,0.728
11,NCI-H460,0.502
12,HCC-44,0.893
13,SW 900,0.482
14,NCI-H1648,0.493
15,NCI-H661,0.353
16,NCI-H2023,0.319
17,NCI-H2009,0.765
18,NCI-H520,0.478
19,NCI-H2228,0.286
20,NCI-H1650,0.503

# Same assay, conditions: first compound 0.2 µM
row,Cell Line,relative viability
1,NCI-H522,0.533
2,NCI-H1623,0.425
3,SK-LU-1,0.275
4,NCI-H2087,0.277
5,NCI-H596,0.791
6,NCI-H1355,0.584
7,SW 1573,0.205
8,LCLC-103H,0.545
9,NCI-H2405,0.76
10,EMC-BAC-2,0.265
11,NCI-H23,0.41
12,HCC-366,0.0994
13,NCI-H1755,0.477
14,NCI-H838,0.305
15,LK-2,0.165
16,NCI-H2347,0.504
17,NCI-H2342,0.522

row,Cell Line,relative viability
1,SK-MES-1,0.95
2,H3255,0.643
3,COR-L23,0.172
4,COR-L 105,0.392
5,LU99A,0.277
6,ChaGo-K-1,0.269
7,NCI-H2170,0.734
8,NCI-H460,0.687
9,HCC-44,0.885
10,SW 900,0.421
11,NCI-H1648,0.402
12,NCI-H661,0.374
13,NCI-H2023,0.35
14,NCI-H2009,0.697
15,NCI-H520,0.438
16,NCI-H2228,0.216
17,NCI-H1650,0.339

# Same assay, conditions: first compound 0.6325 µM
row,Cell Line,relative viability
1,NCI-H522,0.509
2,NCI-H1623,0.387
3,SK-LU-1,0.285
4,NCI-H2087,0.108
5,NCI-H596,0.934
6,NCI-H1355,0.533
7,SW 1573,0.219
8,LCLC-103H,0.407
9,NCI-H727,0.45
10,NCI-H2405,0.667
11,EMC-BAC-2,0.242
12,NCI-H23,0.26
13,HCC-366,0.0993
14,NCI-H1755,0.386
15,NCI-H838,0.283
16,LK-2,0.162
17,NCI-H2347,0.435
18,NCI-H2342,0.496

row,Cell Line,relative viability
1,SK-MES-1,0.801
2,H3255,0.534
3,COR-L23,0.161
4,COR-L 105,0.378
5,LU99A,0.242
6,ChaGo-K-1,0.199
7,NCI-H2170,0.707
8,NCI-H460,0.325
9,HCC-44,0.806
10,SW 900,0.427
11,NCI-H1648,0.576
12,NCI-H661,0.395
13,NCI-H2023,0.291
14,NCI-H2009,0.647
15,NCI-H520,0.399
16,NCI-H2228,0.101
17,NCI-H1650,0.238

# Same assay, conditions: first compound 2 µM
row,Cell Line,relative viability
1,NCI-H522,0.45
2,NCI-H1623,0.42
3,SK-LU-1,0.225
4,NCI-H2087,0.081
5,NCI-H596,0.729
6,NCI-H1355,0.442
7,SW 1573,0.157
8,LCLC-103H,0.276
9,NCI-H727,0.415
10,NCI-H2405,0.612
11,EMC-BAC-2,0.187
12,NCI-H23,0.294
13,HCC-366,0.0727
14,NCI-H1755,0.319
15,NCI-H838,0.255
16,LK-2,0.162
17,NCI-H2347,0.41
18,NCI-H2342,0.491

row,Cell Line,relative viability
1,SK-MES-1,0.61
2,H3255,0.656
3,COR-L23,0.128
4,COR-L 105,0.338
5,LU99A,0.225
6,ChaGo-K-1,0.176
7,NCI-H2170,0.689
8,NCI-H460,0.264
9,HCC-44,0.338
10,SW 900,0.314
11,NCI-H1648,0.433
12,NCI-H661,0.342
13,NCI-H2023,0.169
14,NCI-H2009,0.607
15,NCI-H520,0.542
16,NCI-H2228,0.0875
17,NCI-H1650,0.242

# Compound: CC(C)C[C@@H](C(=O)N[C@H](C(=O)OC1CCCC1)c1ccccc1)[C@H](O)C(=O)NO [Tosedostat] + COc1cc2c(Oc3ccc(NC(=O)C4(C(=O)Nc5ccc(F)cc5)CC4)cc3F)ccnc2cc1OCCCN1CCOCC1 [Foretinib] (partner 0.25 µM)
# Assay: as above
# Settings: first compound 0.02 µM
# How it was run: as §1
row,Cell Line,relative viability
1,NCI-H1623,0.825
2,SK-LU-1,0.975
3,NCI-H1703,0.329
4,EBC-1,0.112
5,NCI-H2087,1.3
6,NCI-H596,0.905
7,NCI-H1355,0.93
8,SW 1573,0.877
9,LCLC-103H,0.787
10,NCI-H727,0.908
11,NCI-H2405,1.03
12,EMC-BAC-2,0.954
13,NCI-H23,1.01
14,Calu-6,1.04
15,HCC-366,0.913
16,NCI-H1755,1.01
17,NCI-H838,1.1
18,LK-2,1.1
19,NCI-H2347,0.711
20,NCI-H2342,0.944

row,Cell Line,relative viability
1,SK-MES-1,0.691
2,H3255,0.871
3,COR-L23,1.04
4,COR-L 105,1.3
5,IA-LM,1.18
6,LU99A,0.894
7,ChaGo-K-1,0.911
8,NCI-H2170,1.01
9,NCI-H460,1.05
10,A549,0.925
11,SW 900,0.854
12,NCI-H661,1.07
13,NCI-H2023,0.782
14,NCI-H1299,1.15
15,NCI-H2009,1.34
16,NCI-H1563,0.961
17,NCI-H520,0.807
18,NCI-H2228,0.998
19,NCI-H1650,1.05

# Same assay, conditions: first compound 0.06325 µM
row,Cell Line,relative viability
1,NCI-H1623,0.905
2,SK-LU-1,0.724
3,NCI-H1703,0.288
4,EBC-1,0.0828
5,NCI-H2087,1.13
6,NCI-H596,0.872
7,NCI-H1355,0.991
8,SW 1573,0.906
9,LCLC-103H,0.797
10,NCI-H727,0.622
11,NCI-H2405,1.02
12,EMC-BAC-2,1.02
13,NCI-H23,0.889
14,Calu-6,0.858
15,HCC-366,0.948
16,NCI-H1755,0.944
17,NCI-H838,1.02
18,LK-2,0.926
19,NCI-H2347,0.731
20,NCI-H2342,1.01

row,Cell Line,relative viability
1,SK-MES-1,0.889
2,H3255,0.902
3,COR-L23,1.03
4,COR-L 105,0.8
5,IA-LM,1.19
6,LU99A,0.729
7,ChaGo-K-1,0.934
8,NCI-H2170,1.04
9,NCI-H460,1
10,A549,0.967
11,SW 900,0.904
12,NCI-H661,0.99
13,NCI-H2023,0.779
14,NCI-H1299,1.14
15,NCI-H2009,1.15
16,NCI-H1563,0.997
17,NCI-H520,0.776
18,NCI-H2228,0.774
19,NCI-H1650,0.955

# Same assay, conditions: first compound 0.2 µM
row,Cell Line,relative viability
1,NCI-H1623,0.856
2,SK-LU-1,0.662
3,NCI-H1703,0.327
4,EBC-1,0.0952
5,NCI-H2087,1.06
6,NCI-H596,0.938
7,NCI-H1355,0.99
8,SW 1573,0.924
9,LCLC-103H,0.878
10,NCI-H2405,1.07
11,EMC-BAC-2,0.999
12,NCI-H23,0.919
13,Calu-6,0.826
14,HCC-366,0.972
15,NCI-H1755,1
16,NCI-H838,1.04
17,LK-2,1.02
18,NCI-H2347,1.04
19,NCI-H2342,1.27

row,Cell Line,relative viability
1,SK-MES-1,0.914
2,H3255,1.02
3,COR-L23,0.975
4,COR-L 105,1.06
5,IA-LM,1.19
6,LU99A,0.758
7,ChaGo-K-1,0.976
8,NCI-H2170,0.958
9,NCI-H460,0.968
10,A549,0.998
11,SW 900,0.709
12,NCI-H661,0.98
13,NCI-H2023,0.764
14,NCI-H1299,1.14
15,NCI-H2009,1.19
16,NCI-H1563,0.958
17,NCI-H2228,1.11
18,NCI-H1650,1.03

# Same assay, conditions: first compound 0.6325 µM
row,Cell Line,relative viability
1,NCI-H1623,0.843
2,SK-LU-1,0.792
3,EBC-1,0.115
4,NCI-H2087,0.98
5,NCI-H596,0.764
6,NCI-H1355,0.92
7,SW 1573,0.825
8,LCLC-103H,0.797
9,NCI-H727,0.602
10,NCI-H2405,1.02
11,EMC-BAC-2,1.1
12,NCI-H23,0.827
13,Calu-6,0.638
14,HCC-366,0.927
15,NCI-H1755,0.992
16,NCI-H838,1.08
17,LK-2,1.11
18,NCI-H2347,0.955
19,NCI-H2342,0.924

row,Cell Line,relative viability
1,SK-MES-1,0.873
2,H3255,0.709
3,COR-L23,1.07
4,COR-L 105,0.753
5,IA-LM,1.12
6,LU99A,0.708
7,ChaGo-K-1,0.833
8,NCI-H2170,0.959
9,NCI-H460,0.977
10,A549,0.974
11,SW 900,0.765
12,NCI-H661,0.979
13,NCI-H1299,1.04
14,NCI-H2009,1.11
15,NCI-H1563,1.12
16,NCI-H520,0.834
17,NCI-H2228,0.768
18,NCI-H1650,0.985

# Same assay, conditions: first compound 2 µM
row,Cell Line,relative viability
1,NCI-H1623,0.794
2,SK-LU-1,0.652
3,NCI-H1703,0.322
4,EBC-1,0.117
5,NCI-H2087,0.941
6,NCI-H596,0.839
7,NCI-H1355,0.883
8,SW 1573,0.974
9,LCLC-103H,0.777
10,NCI-H727,0.487
11,NCI-H2405,0.932
12,EMC-BAC-2,0.838
13,NCI-H23,0.69
14,Calu-6,0.559
15,HCC-366,0.935
16,NCI-H1755,0.931
17,NCI-H838,1.13
18,LK-2,1.68
19,NCI-H2347,0.969
20,NCI-H2342,0.89

row,Cell Line,relative viability
1,SK-MES-1,0.86
2,H3255,0.796
3,COR-L23,1.06
4,COR-L 105,0.69
5,IA-LM,0.903
6,LU99A,0.674
7,ChaGo-K-1,0.709
8,NCI-H2170,1.05
9,NCI-H460,1
10,A549,0.652
11,SW 900,0.61
12,NCI-H661,0.937
13,NCI-H2023,0.808
14,NCI-H1299,0.966
15,NCI-H2009,1.09
16,NCI-H1563,1
17,NCI-H520,0.819
18,NCI-H2228,0.751
19,NCI-H1650,0.967
